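Following 48 hours of exposure in 96-well plates, responses at five concentrations were used to interpolate endpoints linearly. GI50 marks 50% less growth.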 Calls of active or inactive are those of the source. Cut-off read from the data, not from the text of the source: active = GI50 up to about 1.1 µM and inactive = higher.

Test systems include 786-0; M14; M19-MEL; RXF 393; COLO 205; NCI-H226; UACC-257; CAKI-1; SF-268; K562; IGROV-1; HCT-15; SK-OV-3; RPMI-8226.
What all share (test): inhibition of tumour cell growth, NCI panel, 48 h

In the case of `COc1ccccc1NC(=O)NS(=O)(=O)c1ccccc1`, the GI50 was > 100 µM (inactive) in the assay on 786-0; > 100 µM (inactive) in the assay on M14; > 100 µM (inactive) in the assay on M19-MEL; 28.9 µM (inactive) in the assay on RXF 393; > 100 µM (inactive) in the assay on COLO 205; 87.1 µM (inactive) with NCI-H226. Also, the GI50 in the assay on UACC-257 is > 100 µM (inactive); in the assay with CAKI-1, 91.6 µM (inactive); with SF-268, > 100 µM (inactive).

Take `Cc1ccccc1-n1c(CCl)nc2ccc(Br)cc2c1=O`: the GI50 with 786-0 was 8.17 µM (inactive); with M14 it was 0.679 µM (active); in the assay on M19-MEL, 6.15 µM (inactive); with RXF 393, 10.2 µM (inactive); in the assay on K562, 0.354 µM (active); in the assay on COLO 205, 13.4 µM (inactive). Besides, the GI50 in the assay with NCI-H226 is 8.87 µM (inactive); in the assay with IGROV-1, 14.3 µM (inactive); in the assay with HCT-15, 3.59 µM; in the assay on UACC-257, 14.8 µM (inactive); in the assay with SK-OV-3 it was 29.5 µM (inactive); in the assay on CAKI-1, 1.77 µM (inactive). Moreover, the GI50 with RPMI-8226 is 8.36 µM (inactive); with SF-268 it was 3.21 µM (inactive).

As to `O=C(c1ccccc1)c1nc2ccc(Cl)cc2c2c1Cc1ccccc1-2`, the GI50 in the assay with 786-0, in the assay with M14, in the assay on M19-MEL, with RXF 393, in the assay with K562 and in the assay on COLO 205 was > 100 µM (inactive) throughout. Also, the GI50 in the assay with NCI-H226 is > 100 µM (inactive); with IGROV-1, > 100 µM (inactive); with HCT-15, above 100 µM; in the assay with UACC-257, > 100 µM (inactive); with CAKI-1, > 100 µM (inactive); with RPMI-8226 it was > 100 µM (inactive). For the same compound, the GI50 in the assay with SF-268 is > 100 µM (inactive).

As for `O=C(NCCCCCCCCCCCCNC(=O)c1cccc2ccccc12)c1cccc2ccccc12`, the GI50 in the assay with 786-0 is > 44.8 µM (inactive); with M14, > 100 µM (inactive); in the assay with M19-MEL, > 100 µM (inactive); in the assay with RXF 393, > 100 µM (inactive); in the assay on K562 it was > 100 µM (inactive); with COLO 205, > 100 µM (inactive). Moreover, the GI50 with NCI-H226 was > 49.9 µM (inactive); in the assay on IGROV-1, > 55.3 µM (inactive); in the assay on HCT-15, above 100 µM; in the assay on UACC-257, > 100 µM (inactive); with SK-OV-3, > 47.5 µM (inactive); with CAKI-1, 23.3 µM (inactive). Further, the GI50 in the assay with RPMI-8226 and with SF-268 was > 100 µM (inactive) throughout.

With `CC1=C(C(=O)NCc2ccccc2)C(/C=C/c2ccccc2)C(C(=O)NCc2ccccc2)=C(C)N1`, the GI50 in the assay on 786-0, in the assay with M14, in the assay with M19-MEL, in the assay on RXF 393, in the assay with K562 and in the assay on NCI-H226 was > 100 µM (inactive) each time. Further, the GI50 in the assay with IGROV-1 is > 100 µM (inactive); in the assay on HCT-15, above 100 µM; with UACC-257, > 100 µM (inactive); with CAKI-1 it was > 100 µM (inactive); in the assay on RPMI-8226 it was > 100 µM (inactive); with SF-268, > 100 µM (inactive).

Take `N#Cc1cccc2c1Nc1ccccc1S2`: the GI50 in the assay on 786-0 is 55.1 µM (inactive); in the assay on M14, > 100 µM (inactive); with M19-MEL, > 100 µM (inactive); with RXF 393, 32.2 µM (inactive); with K562 it was > 100 µM (inactive); in the assay with COLO 205, > 100 µM (inactive). Also, the GI50 with NCI-H226 is 19.1 µM (inactive); in the assay on IGROV-1, 48.9 µM (inactive); in the assay with HCT-15, above 100 µM; in the assay on UACC-257 it was > 100 µM (inactive); in the assay on SK-OV-3 it was > 100 µM (inactive); in the assay with CAKI-1 it was > 100 µM (inactive). The GI50 was > 100 µM (inactive) in the assay on RPMI-8226 and 32.9 µM (inactive) with SF-268.

Take `C=C1CC2OC(=O)C(=C)C2C(O)C2C(=C)CCC12` (stereo unspecified): the GI50 in the assay with 786-0 is 13.4 µM (inactive); in the assay with M19-MEL, 5.19 µM (inactive); in the assay on RXF 393 it was 4.05 µM (inactive); in the assay on K562, 3.47 µM (inactive); in the assay with COLO 205, 3.78 µM (inactive); with NCI-H226, 20.4 µM (inactive). Also, the GI50 in the assay with IGROV-1 was 17.7 µM (inactive); in the assay on UACC-257, 4.2 µM (inactive); in the assay on SK-OV-3, 12.4 µM (inactive); in the assay with CAKI-1, 5.25 µM (inactive); with RPMI-8226, 2.81 µM (inactive); in the assay on SF-268, 16.7 µM (inactive).

For the compound `CCOC(=O)C1C(c2ccc(Cl)cc2Cl)NC(c2ccc(C)cc2)C(C(=O)OC)S1(=O)=O` (stereo unspecified), the GI50 in the assay with 786-0 was 60.5 µM (inactive); in the assay with M14, > 100 µM (inactive); with M19-MEL, 53.1 µM (inactive); in the assay on RXF 393, > 100 µM (inactive); with K562 it was 13.3 µM (inactive); in the assay with COLO 205, > 100 µM (inactive). For the same compound, the GI50 is 76.4 µM (inactive) in the assay with NCI-H226; > 100 µM (inactive) in the assay with IGROV-1; 59.2 µM in the assay on HCT-15; 22.8 µM (inactive) in the assay with UACC-257; > 100 µM (inactive) in the assay on SK-OV-3; > 100 µM (inactive) with CAKI-1. The GI50 with RPMI-8226 is 74.3 µM (inactive); in the assay on SF-268, 72.9 µM (inactive).

Consider `COc1ccc2c(c1)[n+]([O-])c(/C(C)=N/NC(=O)c1ccccc1O)c(C)[n+]2[O-]`, for which the GI50 in the assay on 786-0, in the assay on M14, in the assay on M19-MEL, in the assay with RXF 393, in the assay on K562 and in the assay with NCI-H226 was > 100 µM (inactive) in each case. The GI50 with IGROV-1 was > 100 µM (inactive); in the assay on HCT-15, above 100 µM; in the assay on UACC-257, > 100 µM (inactive); in the assay on SK-OV-3 it was > 100 µM (inactive); in the assay on CAKI-1, > 100 µM (inactive); in the assay with RPMI-8226, > 100 µM (inactive). In the assay with SF-268, the GI50 was > 100 µM (inactive).

As to `COc1cc(Nc2cnc3cc(C(F)(F)F)ccc3n2)cc(OC)c1OC`, the GI50 in the assay on 786-0 was > 100 µM (inactive); in the assay with M19-MEL, > 100 µM (inactive); with RXF 393, > 100 µM (inactive); with COLO 205, > 100 µM (inactive); in the assay with NCI-H226, > 100 µM (inactive); in the assay with HCT-15 it was above 100 µM. For the same compound, the GI50 in the assay on UACC-257, in the assay on SK-OV-3, in the assay on RPMI-8226 and in the assay with SF-268 was > 100 µM (inactive) throughout.

Take `Cc1cccc(C)c1NC(=O)C(=O)Nn1c(NN)nc2ccccc2c1=O`: the GI50 in the assay on 786-0, in the assay on M14, with M19-MEL, in the assay with RXF 393, in the assay on K562 and in the assay with COLO 205 was > 100 µM (inactive) each time. The GI50 with NCI-H226 is > 100 µM (inactive); in the assay on IGROV-1 it was > 100 µM (inactive); with HCT-15, above 100 µM; in the assay on UACC-257 it was > 100 µM (inactive); in the assay with SK-OV-3, > 100 µM (inactive); in the assay with CAKI-1 it was > 100 µM (inactive). Moreover, the GI50 with RPMI-8226 and in the assay with SF-268 was > 100 µM (inactive) each time.

For the compound `CCCCOC(=O)NC(=O)c1cn(CCCOC(=O)CCCCCCCCC(=O)OCCCn2cc(C(=O)NC(=O)OCCCC)c(=O)[nH]c2=O)c(=O)[nH]c1=O`, the GI50 was > 100 µM (inactive) in the assay with 786-0; > 100 µM (inactive) with M14; > 100 µM (inactive) with M19-MEL; 83 µM (inactive) in the assay on RXF 393; > 100 µM (inactive) in the assay with K562; > 100 µM (inactive) in the assay on COLO 205. Besides, the GI50 is > 100 µM (inactive) in the assay on NCI-H226; > 100 µM (inactive) in the assay with IGROV-1; above 100 µM in the assay with HCT-15; > 100 µM (inactive) in the assay with UACC-257; > 100 µM (inactive) in the assay with SK-OV-3; > 100 µM (inactive) in the assay on RPMI-8226. Besides, the GI50 with SF-268 is > 100 µM (inactive).

Take `O=[N+]([O-])c1ccc(N=P(c2ccccc2)(c2ccccc2)c2ccccc2)n2nnnc12`: the GI50 with 786-0 was 28.1 µM (inactive); in the assay with M14, > 100 µM (inactive); in the assay with M19-MEL, 82 µM (inactive); with RXF 393 it was 44 µM (inactive); in the assay with K562 it was 67 µM (inactive); with COLO 205, 82 µM (inactive). Further, the GI50 in the assay with IGROV-1 is > 100 µM (inactive); with HCT-15 it was above 100 µM; in the assay with UACC-257 it was 85.9 µM (inactive); with SK-OV-3 it was 46.1 µM (inactive); in the assay with CAKI-1, 45.1 µM (inactive); in the assay with RPMI-8226, 35.7 µM (inactive). Besides, the GI50 with SF-268 is 36.1 µM (inactive).

Regarding `Cc1ccc(S(=O)(=O)NC(=O)C#CCOC2CCCCO2)cc1` (stereo unspecified), the GI50 in the assay with 786-0, in the assay on M14, in the assay with M19-MEL, with RXF 393, in the assay on K562 and in the assay on NCI-H226 was > 100 µM (inactive) in each case. Moreover, the GI50 was above 100 µM in the assay on HCT-15, > 100 µM (inactive) in the assay on UACC-257, > 100 µM (inactive) with CAKI-1 and > 100 µM (inactive) in the assay with RPMI-8226.

`COC(=O)C(=C/c1ccc(OC)cc1)/C(C(=O)O)=C(/C)c1ccccc1`: the GI50 in the assay on 786-0, in the assay with M14, in the assay with M19-MEL, with RXF 393, with K562 and with COLO 205 was > 100 µM (inactive) each time. Besides, the GI50 with NCI-H226 was > 100 µM (inactive); in the assay with IGROV-1 it was > 100 µM (inactive); in the assay with HCT-15 it was above 100 µM; in the assay with UACC-257 it was > 100 µM (inactive); in the assay with SK-OV-3 it was > 100 µM (inactive); in the assay on CAKI-1 it was > 100 µM (inactive). For the same compound, the GI50 in the assay on RPMI-8226 was > 100 µM (inactive).

For `COc1c(I)c(OC)c2c(c1I)O[C@@H]1OCC[C@H]21`, the GI50 was 34.8 µM (inactive) in the assay on 786-0; 24.9 µM (inactive) with M14; 23.8 µM (inactive) in the assay with M19-MEL; 37.4 µM (inactive) with RXF 393; 41.2 µM (inactive) in the assay on K562; 20 µM (inactive) in the assay on COLO 205. Besides, the GI50 with NCI-H226 was 23.6 µM (inactive); in the assay with IGROV-1, 37.6 µM (inactive); in the assay with HCT-15, 35.6 µM; in the assay on UACC-257, 26.1 µM (inactive); in the assay with SK-OV-3 it was 31.8 µM (inactive); with CAKI-1 it was 0.098 µM (active). In the assay with RPMI-8226, the GI50 was 19.7 µM (inactive).

(Values after ChEMBL document CHEMBL1201862, “PubChem BioAssay data set” (2004).)
